The values below come from PubChem BioAssay AID1896 (NMMLSC, 2009).

The source made the active and inactive calls. No rule for the calls is given here.

The test concerns the target Mitogen-activated protein kinase kinase kinase 3 (Homo sapiens) (UniProt Q99759). The test is described as follows: MEKK3 PB1-MEK5 interaction blockers – biochemical, bead multiplex flow cytometry, wildtype, dose response (AID 1896). The settings on record: bead-based multiplex flow cytometry, MEK5-MEKK3 PB1 binding; for Ki: measured here: Ki from EC50. (In flow cytometry, cells or beads pass a laser one at a time.)

Sequence of Mitogen-activated protein kinase kinase kinase 3 (Homo sapiens) (Q99759 whole entry, looked up): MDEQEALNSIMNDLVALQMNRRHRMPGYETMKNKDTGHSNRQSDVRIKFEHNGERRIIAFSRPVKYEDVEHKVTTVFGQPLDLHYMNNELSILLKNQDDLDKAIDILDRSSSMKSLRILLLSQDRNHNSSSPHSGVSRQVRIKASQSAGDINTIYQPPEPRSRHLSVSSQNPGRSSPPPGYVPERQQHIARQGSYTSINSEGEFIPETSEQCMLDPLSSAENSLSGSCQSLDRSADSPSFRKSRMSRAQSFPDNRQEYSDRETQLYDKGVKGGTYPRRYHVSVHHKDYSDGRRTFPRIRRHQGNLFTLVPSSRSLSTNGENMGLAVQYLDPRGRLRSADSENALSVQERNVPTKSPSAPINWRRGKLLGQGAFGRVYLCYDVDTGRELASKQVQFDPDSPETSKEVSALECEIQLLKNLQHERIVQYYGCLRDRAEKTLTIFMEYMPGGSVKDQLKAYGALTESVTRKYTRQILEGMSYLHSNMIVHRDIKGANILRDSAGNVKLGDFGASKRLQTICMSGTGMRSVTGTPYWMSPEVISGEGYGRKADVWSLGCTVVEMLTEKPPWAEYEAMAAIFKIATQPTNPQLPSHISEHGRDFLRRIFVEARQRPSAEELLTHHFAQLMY

Broadly, the EC50 is the concentration that produces a half-maximal response. On to `CC(=O)Nc1cccc2c1C(=O)N(c1cccc(C)c1)C2=O`, for which the EC50 is > 30 µM (inactive).

Regarding `O=C(NNc1c2ccccc2nc2ccccc12)c1cc2ccccc2cc1O`, the EC50 was > 30 µM (inactive).

One may read the Ki as a measure of affinity in units of concentration, obtained from inhibition or displacement. Low values mean higher affinity, high ones lower affinity. Regarding `N#CC(C#N)=c1ccc2c(c1)N1C(c3ccccc3)=CC(c3ccccc3)C3CCCCC31N=2` (stereo not given), the EC50 is 1.63 µM and the inhibitory constant (Ki) is 1.4 µM.

With `CCCCCCCCCCOC(=O)Cn1c(COc2ccc(OC)cc2)[n+](C)c2ccccc21`, the EC50 was > 30 µM (inactive).

Take `COc1ccc(NC(=O)N(Cc2cc3cc(C)ccc3[nH]c2=O)CC2CCCO2)cc1` (stereo not given): the EC50 was > 30 µM (inactive).

For `CCN1C(c2ccccc2)=C(c2ccccc2)S/C1=C\C=C1/SC(=S)N(C)C1=O`, the 50% effective concentration (EC50) is 3.93 µM and the Ki stood at 3.36 µM.

In the case of `FC(F)(F)c1cccc(NC(=S)N(CCCN2CCCC2)Cc2cccn2Cc2ccc(Cl)cc2)c1`, the EC50 is > 30 µM (inactive).

For `C#CCOCCOCCOCCNc1nc(N2CCN(C(=O)C([C@@H](C)CC)n3cc(C(N)COC(=O)C(F)(F)F)nn3)CC2)nc(N2CCN(C(=O)[C@H](CCCCN)n3cc(C(N)[C@H](C)CC)nn3)CC2)n1` (stereo not given in full), the EC50 was > 30 µM (inactive).

In the case of `CCCCCc1cc(=O)oc2c(C(CCN3CCCC(C)C3)c3ccc4c(c3)OCO4)c(OC)cc(OC)c12` (stereo not given), the EC50 is > 30 µM (inactive).

Turning to `CCCCCc1cc(=O)oc2c(C(CCN3CCCCC3)c3ccc4c(c3)OCO4)c(OC)cc(OC)c12` (stereo not given), the EC50 was > 30 µM (inactive).

Regarding `CCCCN(CC)CCNC(=O)c1cc2c(-c3ccc(Cl)cc3)nn(C)c2s1`, the EC50 is > 30 µM (inactive).

For the compound `Cc1nc(Nc2cnc(/C=C/c3cc(C(=O)Nc4cccc(C(F)(F)F)c4)ccc3C)cn2)cc(N2CCNCC2)n1`, the EC50 was 25.2 µM and the Ki is 21.5 µM.

Consider `CN(C)CCNc1ncnc2c1sc1nc(-c3ccccc3)c3c(c12)CCCC3`, for which the EC50 was > 30 µM (inactive).

On to `CN(C)c1ccc(NC(=O)CN2CCC(O)(c3ccccc3)CC2)cc1`, for which the EC50 was > 30 µM (inactive).

For the compound `Brc1ccc(N=C/C=C/C=C/Nc2ccc(Br)cc2)cc1`, the EC50 was 10.6 µM and the Ki was 9.04 µM.

As to `CCC(=C/c1sc2ccc3ccccc3c2[n+]1C)/C=C1\Sc2ccc3ccccc3c2N1C`, the EC50 is 0.27 µM and the Ki was 0.23 µM.

Take `CCN1CCN(Cc2ccc(NC(=O)c3cc(NC(=O)C(=O)c4c[nH]c5ccccc45)cc(OC)c3)cc2C(F)(F)F)CC1`: the EC50 is > 30 µM (inactive).

As to `C#CCOCCOCCOCCNc1nc(N2CCN(C(=O)[C@H](Cc3ccc(O)cc3)n3cc([C@@H](N)CC(C)C)nn3)CC2)nc(N2CCN(C(=O)[C@H](Cc3cc4ccccc4[nH]3)n3cc([C@@H](N)CC(C)C)nn3)CC2)n1`, the EC50 is > 30 µM (inactive).

`Cc1nn2c(N)csc2nc1=O`: the concentration for a half-maximal effect (EC50) is 4.14 µM and the Ki stood at 3.54 µM.

Regarding `Cc1ccc(-n2cc(CNCCCn3ccnc3C)c(-c3ccc(F)cc3)n2)cc1`, the EC50 is > 30 µM (inactive).

`CCN(CC)CCOC(=O)c1ccc(N/C=C(/C#N)c2nc(-c3cccc(OC)c3)cs2)cc1`: the EC50 was > 30 µM (inactive).

With `Nc1ccc(Nc2ccccc2N)cc1`, the EC50 was 21.1 µM and the Ki was found to be 18.1 µM.

Consider `COc1ccc(-c2cc(C#N)nc(N3CCNCC3)n2)cc1`, for which the EC50 was > 30 µM (inactive).

Turning to `COc1ccccc1N1CCN(S(=O)(=O)c2ccc(Cl)s2)CC1`, the EC50 is > 30 µM (inactive).

With `CCn1cc(C(=O)O)c(=O)c2cc(F)c(N3CCN(C(=S)NC(=O)c4ccc(Br)cc4)CC3)cc21`, the EC50 is > 30 µM (inactive).

In the case of `O=C(Nc1ccc(C2=NCCN2)cc1)c1ccc(C(=O)Nc2ccc(C3=NCCN3)cc2)c([N+](=O)[O-])c1`, the 50% effective concentration (EC50) was 11.9 µM and the inhibition constant (Ki) was 10.2 µM.

As for `CN1CCN(CC(O)COc2ccc(C34CC5CC(CC(C5)C3)C4)cc2)CC1` (stereo not given), the EC50 was > 30 µM (inactive).

Turning to `CNC(=O)C(=O)Nc1c(C)cc(C)cc1C`, the EC50 was > 30 µM (inactive).

Regarding `CCN(CC)CCOC(=O)c1ccc(NC(=O)c2cn(-c3ccccc3)nc2-c2cccs2)cc1`, the EC50 was > 30 µM (inactive).

As for `CC(C)n1cc(CN2CCC(C(=O)Nc3cccc(-c4cccc(Cl)c4)c3)CC2)cn1`, the EC50 was > 30 µM (inactive).

Turning to `NC(N)=N/N=C/c1ccc(OCc2ccccc2Cl)cc1`, the EC50 was > 30 µM (inactive).

As for `CCOC(=O)N1CCN(c2c(N3CCN(c4ccccc4F)CC3)c(=O)c2=O)CC1`, the EC50 is > 30 µM (inactive).

As for `Cc1c2cc(O)c(=O)cc-2oc2cc(O)c(O)cc12`, the EC50 was > 30 µM (inactive).

On to `C#CCOCCOCCOCCNc1nc(N2CCN(C(=O)[C@H]([C@@H](C)CC)n3cc([C@@H](N)Cc4ccc(O)cc4)nn3)CC2)nc(N2CCN(C(=O)[C@H](Cc3cc4ccccc4[nH]3)n3cc([C@@H](N)C(C)CC)nn3)CC2)n1` (stereo not given in full), for which the EC50 was > 30 µM (inactive).

With `CN1C(=O)/C(=C\c2ccc(-c3ccccc3)o2)SC1=S`, the EC50 is 10.2 µM and the inhibition constant Ki stood at 8.75 µM.

As to `NC(=O)CSc1nnc(Cc2ccc3c(c2)OCO3)o1`, the EC50 is > 30 µM (inactive).

Regarding `COc1ccc(Cn2cc3c(-c4ccc(F)cc4)nnc-3c3cc(OC)c(OC)cc32)cc1`, the EC50 was > 30 µM (inactive).

With `COc1cc2nc(N3CCN(c4cc(C)ccc4C)CC3)nc(N)c2cc1OC`, the EC50 was > 30 µM (inactive).

On to `CCCCCCCCCCOC(=O)Cn1c(COc2ccccc2)[n+](C)c2ccccc21`, for which the EC50 is > 30 µM (inactive).

Take `Cc1nc(N)sc1-c1csc(Nc2ncccn2)n1`: the EC50 is > 30 µM (inactive).

Regarding `COc1ccc(N2CC(C(=O)Nc3nnc(SCc4ccccn4)s3)CC2=O)cc1` (stereo not given), the EC50 is > 30 µM (inactive).
